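Values below derive from 48-hour exposures of cells grown in 96-well plates, with endpoints linearly interpolated between the two concentrations bracketing the appropriate inhibition level. GI50 marks 50% less growth.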 Activity calls are given as the source filed them. Cut-off read from the data, not from the text of the source: active = GI50 up to about 1.1 µM and inactive = higher.
Columns and labels:
Assay in all cases: growth of human tumour cells (NCI), 48 h
[1] = system: 786-0
[2] = system: A498
[3] = system: A549
[4] = system: ACHN
[5] = system: BT-549
[6] = system: CAKI-1
[7] = system: CCRF-CEM
[8] = system: COLO 205
[9] = system: DU-145
[10] = system: EKVX
[11] = system: HCC 2998
[12] = system: HCT-116
[13] = system: HCT-15
[14] = system: HOP-62
[15] = system: HOP-92
[16] = system: HT-29
[17] = system: Hs-578T
[18] = system: IGROV-1
[19] = system: K562
[20] = system: KM12
[21] = system: LOX IMVI
[22] = system: M14
[23] = system: MCF7
[24] = system: MDA-MB-231
[25] = system: MDA-MB-435
[26] = system: MDA-N
[27] = system: MOLT-4
[28] = system: Malme-3M
[29] = system: NCI-H23
[30] = system: NCI-H460
[31] = system: NCI-H522
[32] = system: NCI/ADR-RES
[33] = system: OVCAR-3
[34] = system: OVCAR-4
[35] = system: OVCAR-5
[36] = system: OVCAR-8
[37] = system: PC-3
[38] = system: RPMI-8226
[39] = system: SF-268
[40] = system: SF-295
[41] = system: SF-539
[42] = system: SK-MEL-28
[43] = system: SK-MEL-5
[44] = system: SK-OV-3
[45] = system: SN12C
[46] = system: SNB-19
[47] = system: SNB-75
[48] = system: SR
[49] = system: SW-620
[50] = system: T47D
[51] = system: TK-10
[52] = system: U-251
[53] = system: UACC-257
[54] = system: UACC-62
[55] = system: UO-31
[56] = system: HL-60
[57] = system: NCI-H226
[58] = system: RXF 393
[59] = system: SK-MEL-2

## OC(Cc1ccc2ccccc2n1)(C(F)(F)F)C(F)(F)F
[1]
  GI50: > 10 µM (inactive)
[2]
  GI50: > 10 µM (inactive)
[3]
  GI50: > 10 µM (inactive)
[4]
  GI50: > 10 µM (inactive)
[5]
  GI50: > 10 µM (inactive)
[6]
  GI50: > 10 µM (inactive)
[7]
  GI50: > 10 µM (inactive)
[8]
  GI50: > 10 µM (inactive)
[9]
  GI50: > 10 µM (inactive)
[10]
  GI50: > 10 µM (inactive)
[11]
  GI50: > 10 µM (inactive)
[12]
  GI50: > 10 µM (inactive)
[13]
  GI50: > 10 µM
[14]
  GI50: > 10 µM (inactive)
[15]
  GI50: > 10 µM (inactive)
[16]
  GI50: > 10 µM (inactive)
[17]
  GI50: > 10 µM (inactive)
[18]
  GI50: > 10 µM (inactive)
[19]
  GI50: > 10 µM (inactive)
[20]
  GI50: > 10 µM (inactive)
[21]
  GI50: > 10 µM (inactive)
[22]
  GI50: > 10 µM (inactive)
[23]
  GI50: > 10 µM (inactive)
[24]
  GI50: > 10 µM (inactive)
[25]
  GI50: > 10 µM (inactive)
[26]
  GI50: > 10 µM (inactive)
[27]
  GI50: > 10 µM (inactive)
[28]
  GI50: > 10 µM (inactive)
[29]
  GI50: > 10 µM (inactive)
[30]
  GI50: > 10 µM (inactive)
[31]
  GI50: > 10 µM (inactive)
[32]
  GI50: > 10 µM (inactive)
[33]
  GI50: > 10 µM (inactive)
[34]
  GI50: > 10 µM (inactive)
[35]
  GI50: > 10 µM (inactive)
[36]
  GI50: > 10 µM (inactive)
[37]
  GI50: > 10 µM (inactive)
[38]
  GI50: > 10 µM (inactive)
[39]
  GI50: > 10 µM (inactive)
[40]
  GI50: > 10 µM (inactive)
[41]
  GI50: > 10 µM (inactive)
[42]
  GI50: > 10 µM (inactive)
[43]
  GI50: > 10 µM (inactive)
[44]
  GI50: > 10 µM (inactive)
[45]
  GI50: > 10 µM (inactive)
[46]
  GI50: > 10 µM (inactive)
[47]
  GI50: > 10 µM (inactive)
[48]
  GI50: > 10 µM (inactive)
[49]
  GI50: > 10 µM (inactive)
[50]
  GI50: > 10 µM (inactive)
[51]
  GI50: > 10 µM (inactive)
[52]
  GI50: > 10 µM (inactive)
[53]
  GI50: > 10 µM (inactive)
[54]
  GI50: > 10 µM (inactive)
[55]
  GI50: > 10 µM (inactive)

## CCCC(=O)OC1CC(n2cc(F)c(=O)[nH]c2=O)OC1CO (stereo unspecified)
[1]
  GI50: 0.342 µM (active)
[2]
  GI50: 2.07 µM (inactive)
[3]
  GI50: 0.0538 µM (active)
[4]
  GI50: 0.0506 µM (active)
[5]
  GI50: 0.726 µM (active)
[6]
  GI50: 0.141 µM (active)
[7]
  GI50: 0.0355 µM (active)
[8]
  GI50: 4.71 µM (inactive)
[9]
  GI50: 0.182 µM (active)
[10]
  GI50: > 10 µM (inactive)
[11]
  GI50: 0.0202 µM (active)
[12]
  GI50: 0.731 µM (active)
[13]
  GI50: > 7.64 µM
[56]
  GI50: 0.646 µM (active)
[14]
  GI50: 0.0583 µM (active)
[16]
  GI50: 1.29 µM (inactive)
[17]
  GI50: > 3.19 µM (inactive)
[18]
  GI50: > 5.89 µM (inactive)
[19]
  GI50: 1.74 µM (inactive)
[20]
  GI50: > 10 µM (inactive)
[21]
  GI50: 0.0149 µM (active)
[22]
  GI50: 0.33 µM (active)
[23]
  GI50: 0.036 µM (active)
[24]
  GI50: > 8.95 µM (inactive)
[25]
  GI50: 2.79 µM (inactive)
[26]
  GI50: 1.63 µM (inactive)
[27]
  GI50: > 6.89 µM (inactive)
[28]
  GI50: > 8.79 µM (inactive)
[57]
  GI50: > 10 µM (inactive)
[29]
  GI50: 0.0682 µM (active)
[30]
  GI50: 0.0948 µM (active)
[31]
  GI50: 6.34 µM (inactive)
[32]
  GI50: > 2.55 µM (inactive)
[33]
  GI50: 3.69 µM (inactive)
[34]
  GI50: > 10 µM (inactive)
[35]
  GI50: > 10 µM (inactive)
[36]
  GI50: 0.171 µM (active)
[37]
  GI50: 1.48 µM (inactive)
[58]
  GI50: > 5.79 µM (inactive)
[39]
  GI50: 0.0356 µM (active)
[40]
  GI50: 0.148 µM (active)
[41]
  GI50: 0.00859 µM (active)
[42]
  GI50: > 7.21 µM (inactive)
[59]
  GI50: > 10 µM (inactive)
[43]
  GI50: 0.329 µM (active)
[44]
  GI50: 4.08 µM (inactive)
[45]
  GI50: 0.317 µM (active)
[47]
  GI50: 1.53 µM (inactive)
[48]
  GI50: 0.0493 µM (active)
[49]
  GI50: > 10 µM (inactive)
[50]
  GI50: > 10 µM (inactive)
[51]
  GI50: > 2.67 µM (inactive)
[52]
  GI50: > 5.24 µM (inactive)
[53]
  GI50: > 4.49 µM (inactive)
[54]
  GI50: 0.0863 µM (active)
[55]
  GI50: 0.362 µM (active)
